Test results reported in patent US9695155B2, “Herbicidal substituted pyrimidinyloxy benzene compounds” (E. I. DU PONT DE NEMOURS AND COMPANY, priority 2013, dated 2017).

Assays:
Italian ryegrass [1] = test: Test C preemergence; assay type: in vivo, Lolium multiflorum; conditions: for Ryegrass, Italian plant response rating: preemergence
Excerpt: (§1) Seeds of plant species selected from blackgrass (Alopecurus myosuroides), Italian ryegrass (Lolium multiflorum), wheat, winter (winter wheat, Triticum aestivum), galium (catchweed bedstraw, Galium aparine), corn (Zea mays), large (Lg) crabgrass (Digitaria sanguinalis), giant foxtail (Setaria faberii), johnsongrass (Sorghum halepense), lambsquarters (Chenopodium album), morningglory (Ipomoea coccinea), yellow nutsedge (Cyperus esculentus), pigweed (Amaranthus retroflexus), ragweed (common ragweed, Ambrosia elatior), soybean (Glycine max), barnyardgrass (Echinochloa crus-galli), oilseed rape (Brassica napus), waterhemp (common waterhemp, Amaranthus rudis), kochia (Kochia scoparia), wild oat (Avena fatua), surinam grass (Brachiaria decumbens), foxtail, green (green foxtail, Setaria viridis), goosegrass (Eleusine indica), bromegrass, downy (downy bromegrass, Bromus tectorum), nightshade (eastern black nightshade, Solanum ptycanthum), cocklebur (common cocklebur, Xanthium strumarium), cupgrass, woolly (woolly cupgrass, Eriochloa villosa), bermudagrass (Cynodon dactylon), sunflower, (common oilseed sunflower, Helianthus annuus), Russian thistle (Salsola kali), and velvetleaf (Abutilon theophrasti) were planted into a blend of loam soil and sand and treated preemergence with test chemicals formulated in a non-phytotoxic solvent mixture which included a surfactant.
(§2) At the same time, plants selected from these crop and weed species and also barley, winter (winter barley, Hordeum vulgare), windgrass (Apera spica-venti), chickweed (common chickweed, Stellaria media), deadnettle (henbit deadnettle, Lamium amplexicaule), and canarygrass (littleseed canarygrass, Phalaris minor) were planted in pots containing Redi-Earth® planting medium (Scotts Company, 14111 Scottslawn Road, Marysville, Ohio 43041) comprising spaghnum peat moss, vermiculite, wetting agent and starter nutrients and treated with postemergence applications of test chemicals formulated in the same manner. Plants ranged in height from 2 to 18 cm (1- to 4-leaf stage) for postemergence treatments. Treated plants and controls were maintained in a greenhouse for 13 to 15 days, after which time all species were compared to controls and visually evaluated. Plant response ratings, summarized in Table C, are based on a scale of 0 to 100 where 0 is no effect and 100 is complete control. A dash (-) response means no test result.

barnyardgrass [2] = test: Test C preemergence; assay type: in vivo, Echinochloa crus-galli; conditions: for Barnyardgrass plant response rating: preemergence; for Plant response rating, Barnyardgrass: Preemergence, scale 0 to 100, 0 no effect, 100 complete control
Excerpt: as §1, §2

wheat = test: Test A postemergence; assay type: in vivo, Triticum aestivum
Summary of the method: (§3)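 Pre- and postemergence greenhouse screen. Soil: loam + sand. Spray carrier: solvent mixture, non-phytotoxic, with surfactant. Post timing at 1–2 leaves, height 2–10 cm. Readout: visual injury on a 0–100 scale roughly 10 days after application, untreated plants as reference.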

soybean = test: Test C preemergence; assay type: in vivo, Glycine max; conditions: for Soybean plant response rating: preemergence
Excerpt: as §1, §2

yellow nutsedge = test: Test C preemergence; assay type: in vivo, Cyperus esculentus; conditions: for Nutsedge, Yellow plant response rating: preemergence
Excerpt: as §1, §2

ragweed [3] = test: Test C preemergence; assay type: in vivo, Ambrosia elatior; conditions: for Ragweed plant response rating: preemergence
Excerpt: as §1, §2

oilseed rape [4] = test: Test C preemergence; assay type: in vivo, Brassica napus; conditions: for Oilseed Rape plant response rating: preemergence
Excerpt: as §1, §2

barnyardgrass [5] = test: Test A postemergence; assay type: in vivo, Echinochloa crus-galli
Summary of the method: as §3

morningglory [6] = test: Test A preemergence; assay type: in vivo, Ipomoea spp.; conditions: for Morningglory plant response rating (0 to 100 scale): 125 g ai/ha; for Morningglory plant response rating: 500 g ai/ha, 0 to 100 scale where 0 is no effect and 100 is complete control
Summary of the method: as §3

morningglory [7] = test: Test C preemergence; assay type: in vivo, Ipomoea coccinea; conditions: for Morningglory plant response rating: preemergence
Excerpt: as §1, §2

blackgrass [8] = test: Test C preemergence; assay type: in vivo, Alopecurus myosuroides; conditions: for Blackgrass plant response rating: preemergence; for Plant response rating, Blackgrass: Preemergence, scale 0 to 100, 0 no effect, 100 complete control
Excerpt: as §1, §2

giant foxtail = test: Test A postemergence; assay type: in vivo, Setaria faberii
Summary of the method: as §3

johnsongrass = test: Test C preemergence; assay type: in vivo, Sorghum halepense; conditions: for Johnsongrass plant response rating: preemergence
Excerpt: as §1, §2

kochia = test: Test A postemergence; assay type: in vivo, Kochia scoparia
Summary of the method: as §3

Italian ryegrass [9] = test: Test A postemergence; assay type: in vivo, Lolium multiflorum
Summary of the method: as §3

oilseed rape [10] = test: Test C postemergence; assay type: in vivo, Brassica napus; conditions: postemergence; for Plant response rating (0 to 100), Oilseed Rape: 0 is no effect, 100 is complete control
Summary of the method: (§4)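 Injury was assessed visually against controls 13 to 15 days after application, with 0 meaning no effect and 100 full control; missing entries are shown as a dash. Preemergence sprays hit seeded loam–sand soil, postemergence sprays hit 1- to 4-leaf plants.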

large (Lg) crabgrass = test: Test C postemergence; assay type: in vivo, Digitaria sanguinalis; conditions: postemergence; for Plant response rating (0 to 100), Crabgrass, Large: 0 is no effect, 100 is complete control
Summary of the method: as §4

ragweed [11] = test: Test A postemergence; assay type: in vivo, Ambrosia elatior
Summary of the method: as §3

blackgrass [12] = test: Test C postemergence; assay type: in vivo, Alopecurus myosuroides; conditions: postemergence; for Plant response rating (0 to 100), Blackgrass: 0 is no effect, 100 is complete control
Summary of the method: as §4

[13] = 16 g ai/ha, scale 0 to 100 (0 no effect, 100 complete control)
[14] = 31 g ai/ha, scale 0 to 100 (0 no effect, 100 complete control)
[15] = 125 g ai/ha, scale 0 (no effect) to 100 (complete control)
[16] = Preemergence, 62 g ai/ha, scale 0 to 100, 0 no effect, 100 complete control
[17] = 125 g ai/ha, 0 to 100 scale, 0 no effect, 100 complete control
[18] = 500 g ai/ha, 0 to 100 scale where 0 is no effect and 100 is complete control
[19] = 62 g ai/ha, scale 0 (no effect) to 100 (complete control)
[20] = 125 g ai/ha, 0 to 100 scale where 0 is no effect and 100 is complete control
[21] = 31 g ai/ha, 0 to 100 scale, 0 no effect, 100 complete control
[22] = 31 g ai/ha, visual rating, scale 0 to 100 (0 no effect, 100 complete control), 13 to 15 days

For `NC(=S)c1cccc(Oc2ncc(Cl)cn2)c1-n1cc(Cl)cn1` [Compound 292], the “Ryegrass, Italian plant response rating” value (Italian ryegrass [1]; [13]) was 0, the “Ryegrass, Italian plant response rating” value (Italian ryegrass [1]; [14]) was 0 and the “Ryegrass, Italian plant response rating” value (Italian ryegrass [1]; [15]) was 85. For the same compound, the “Plant response rating, Ryegrass, Italian” value (Italian ryegrass [1]; [16]) was 10, the “Barnyardgrass plant response rating” value (barnyardgrass [2]; [13]) was 0 and the “Barnyardgrass plant response rating” value (barnyardgrass [2]; [14]) was 15. For the same compound, the “Barnyardgrass plant response rating” value (barnyardgrass [2]; [15]) was 100, the “Plant response rating, Barnyardgrass” value (barnyardgrass [2]; 62 g ai/ha) was 85 and the “Plant response rating, Wheat” value (wheat; [17]) was 10. For the same compound, the “Plant response rating, Wheat” value (wheat; [18]) was 60, the “Soybean plant response rating” value (soybean; [13]) was 5 and the “Soybean plant response rating” value (soybean; [14]) was 40. The “Soybean plant response rating” value (soybean; [15]) was 90, the “Plant response rating, Soybean” value (soybean; [16]) was 85 and the “Nutsedge, Yellow plant response rating” value (yellow nutsedge; [13]) was 0. For the same compound, the “Nutsedge, Yellow plant response rating” value (yellow nutsedge; [14]) was 0, the “Nutsedge, Yellow plant response rating” value (yellow nutsedge; [15]) was 35 and the “Plant response rating, Nutsedge, Yellow” value (yellow nutsedge; [16]) was 0. The “Ragweed plant response rating” value (ragweed [3]; [13]) was 25, the “Ragweed plant response rating” value (ragweed [3]; [14]) was 35 and the “Ragweed plant response rating” value (ragweed [3]; [15]) was 70. For the same compound, the “Plant response rating, Ragweed” value (ragweed [3]; [16]) was 35, the “Oilseed Rape plant response rating” value (oilseed rape [4]; [13]) was 70 and the “Oilseed Rape plant response rating” value (oilseed rape [4]; [14]) was 80. For the same compound, the “Oilseed Rape plant response rating” value (oilseed rape [4]; [15]) was 98, the “Plant response rating, Oilseed Rape” value (oilseed rape [4]; [16]) was 98 and the “Plant response rating, Barnyardgrass” value (barnyardgrass [5]; [17]) was 60. The “Plant response rating, Barnyardgrass” value (barnyardgrass [5]; [18]) was 90, the “Morningglory plant response rating (0 to 100 scale)” value (morningglory [6]) was 30 and the “Morningglory plant response rating” value (morningglory [6]) was 90. The “Morningglory plant response rating” value (morningglory [7]; [13]) was 25, the “Morningglory plant response rating” value (morningglory [7]; [14]) was 30 and the “Morningglory plant response rating” value (morningglory [7]; [15]) was 70. For the same compound, the “Plant response rating, Morningglory” value (morningglory [7]; [16]) was 35, the “Blackgrass plant response rating” value (blackgrass [8]; [13]) was 0 and the “Blackgrass plant response rating” value (blackgrass [8]; [14]) was 70. The “Blackgrass plant response rating” value (blackgrass [8]; [15]) was 90, the “Plant response rating, Blackgrass” value (blackgrass [8]; 62 g ai/ha) was 90 and the “Plant response rating, Foxtail, Giant” value (giant foxtail; [17]) was 70. The “Plant response rating, Foxtail, Giant” value (giant foxtail; [18]) was 90, the “Johnsongrass plant response rating” value (johnsongrass; [13]) was 0 and the “Johnsongrass plant response rating” value (johnsongrass; [14]) was 5. The “Johnsongrass plant response rating” value (johnsongrass; [15]) was 85 and the “Plant response rating, Johnsongrass” value (johnsongrass; [16]) was 40.
For `FC(F)c1cccc(Oc2ncc(Cl)cn2)c1-n1cc(C(F)(F)F)cn1` [Compound 170], the “Ryegrass, Italian plant response rating” value (Italian ryegrass [1]; [13]) was 5, the “Ryegrass, Italian plant response rating” value (Italian ryegrass [1]; [19]) was 75 and the “Ryegrass, Italian plant response rating” value (Italian ryegrass [1]; [15]) was 90. For the same compound, the “Barnyardgrass plant response rating” value (barnyardgrass [2]; [13]) was 10, the “Barnyardgrass plant response rating” value (barnyardgrass [2]; [19]) was 100 and the “Barnyardgrass plant response rating” value (barnyardgrass [2]; [15]) was 100. For the same compound, the “Plant response rating, Barnyardgrass” value (barnyardgrass [2]; 31 g ai/ha) was 55, the “Wheat plant response rating” value (wheat; [20]) was 30 and the “Plant response rating, Wheat” value (wheat; [18]) was 70. For the same compound, the “Soybean plant response rating” value (soybean; [13]) was 5, the “Soybean plant response rating” value (soybean; [19]) was 45 and the “Soybean plant response rating” value (soybean; [15]) was 55. For the same compound, the “Nutsedge, Yellow plant response rating” value (yellow nutsedge; [13]) was 0, the “Nutsedge, Yellow plant response rating” value (yellow nutsedge; [19]) was 15 and the “Nutsedge, Yellow plant response rating” value (yellow nutsedge; [15]) was 55. The “Ragweed plant response rating” value (ragweed [3]; [13]) was 85, the “Ragweed plant response rating” value (ragweed [3]; [19]) was 55 and the “Ragweed plant response rating” value (ragweed [3]; [15]) was 65. For the same compound, the “Oilseed Rape plant response rating” value (oilseed rape [4]; [13]) was 70, the “Oilseed Rape plant response rating” value (oilseed rape [4]; [19]) was 98 and the “Oilseed Rape plant response rating” value (oilseed rape [4]; [15]) was 95. For the same compound, the “Barnyardgrass plant response rating” value (barnyardgrass [5]; [20]) was 70, the “Plant response rating, Barnyardgrass” value (barnyardgrass [5]; [18]) was 90 and the “Morningglory plant response rating (0 to 100 scale)” value (morningglory [6]) was 20. The “Morningglory plant response rating” value (morningglory [6]) was 90, the “Morningglory plant response rating” value (morningglory [7]; [13]) was 0 and the “Morningglory plant response rating” value (morningglory [7]; [19]) was 40. For the same compound, the “Morningglory plant response rating” value (morningglory [7]; [15]) was 100, the “Blackgrass plant response rating” value (blackgrass [8]; [13]) was 0 and the “Blackgrass plant response rating” value (blackgrass [8]; [19]) was 90. For the same compound, the “Blackgrass plant response rating” value (blackgrass [8]; [15]) was 90, the “Plant response rating, Blackgrass” value (blackgrass [8]; 31 g ai/ha) was 80 and the “Foxtail, Giant plant response rating” value (giant foxtail; [20]) was 70. The “Plant response rating, Foxtail, Giant” value (giant foxtail; [18]) was 90, the “Johnsongrass plant response rating” value (johnsongrass; [13]) was 0 and the “Johnsongrass plant response rating” value (johnsongrass; [19]) was 70. For the same compound, the “Johnsongrass plant response rating” value (johnsongrass; [15]) was 85.
`FCc1cccc(Oc2ncc(F)cn2)c1-n1cc(I)cn1` [Compound 152] was tested, and the “Plant response rating, Wheat” value (wheat; [21]) was 20, the “Wheat plant response rating” value (wheat; [20]) was 40 and the “Plant response rating, Kochia” value (kochia; [21]) was 20. For the same compound, the “Kochia plant response rating” value (kochia; [20]) was 80, the “Plant response rating, Ryegrass, Italian” value (Italian ryegrass [9]; [21]) was 0 and the “Ryegrass, Italian plant response rating” value (Italian ryegrass [9]; [20]) was 20. The “Plant response rating (0 to 100), Oilseed Rape” value (oilseed rape [10]; 8 g ai/ha) was 5, the “Plant response rating (0 to 100), Oilseed Rape” value (oilseed rape [10]; 16 g ai/ha) was 35 and the “Oilseed Rape plant response rating” value (oilseed rape [10]; [22]) was 60. The “Plant response rating, Barnyardgrass” value (barnyardgrass [5]; [21]) was 0, the “Barnyardgrass plant response rating” value (barnyardgrass [5]; [20]) was 30 and the “Plant response rating (0 to 100), Crabgrass, Large” value (large (Lg) crabgrass; 8 g ai/ha) was 5. For the same compound, the “Plant response rating (0 to 100), Crabgrass, Large” value (large (Lg) crabgrass; 16 g ai/ha) was 5, the “Crabgrass, Large plant response rating” value (large (Lg) crabgrass; [22]) was 5 and the “Plant response rating, Foxtail, Giant” value (giant foxtail; [21]) was 0. For the same compound, the “Foxtail, Giant plant response rating” value (giant foxtail; [20]) was 40, the “Plant response rating, Ragweed” value (ragweed [11]; [21]) was 20 and the “Ragweed plant response rating” value (ragweed [11]; [20]) was 20. The “Plant response rating (0 to 100), Blackgrass” value (blackgrass [12]; 4 g ai/ha) was 0, the “Plant response rating (0 to 100), Blackgrass” value (blackgrass [12]; 8 g ai/ha) was 0 and the “Plant response rating (0 to 100), Blackgrass” value (blackgrass [12]; 16 g ai/ha) was 0. For the same compound, the “Blackgrass plant response rating” value (blackgrass [12]; [22]) was 0.
